Assays:
[1] = tested on: AhR; assay: AhR activation in Caco-2 cells through CYP1A1 mRNA expression
Description: Caco-2 cells from American Type Culture Collection (ATCC) were plated in a sterile tissue culture treated 96-well plate (ThermoFisher) at […] per well, and grown overnight at 37° C., 5% CO2 in DMEM complete (Gibco) in order to achieve confluence. After the incubation medium was aspirated from the Caco-2 monolayers, tissues were then washed with 200 μL of warmed PBS solution, and subsequently 190 μL of pre-warmed growth medium was added to each well. Compounds of interest were diluted at a 20× concentration in growth medium containing 2% DMSO, and 10 μL of compound solutions were added to respective wells in triplicate. Compounds where incubated overnight at 37° C., 5% CO2. 2-(1′H-indole-3′-carbonyl)-thiazole-4-carboxylic acid methyl ester (ITE) was used as the positive control for AhR activation at 1 and 100 μM concentrations. At the end of the incubation, medium was aspirated off of the Caco-2 cells, and washed with 100 μL of cold PBS solution. RNA was extracted via the TaqMan™ Gene Expression Cells-to-CT™ Kit (ThermoFisher) according to the manufacturers protocol. The QuantStudio 6 Flex (Applied Biosciences) was used to analyze mRNA levels of CYP1A1 using GAPDH as the endogenous control. TaqMan™ probe sets for both genes were acquired from ThermoFisher. Samples were run in triplicate and data was analyzed using the QuantStudio software and reported as linear (Table 1) and log 2(ΔΔCT) values. Statistical analysis was performed using a two-tailed t-test comparing CYP1A1 levels in the presence of each individual compound to the vehicle negative control.

[2] = tested on: Caco-2 colonocytes; assay: Human Caco-2 barrier integrity assay (TEER); type: cell-based; conditions: 48 hours
Description: Caco-2 colonocytes were maintained at 37° C. and 5% CO2 in Dulbecco's Modified Eagle Medium (DMEM) and supplemented with 10% FBS, 1% NEAA, 1% penicillin-streptomycin. At 70-80% confluency, cells were trypsinized and seeded in 0.4 cm^2 transwell collagen I coated membranes with supplemented DMEM in both apical and basolateral compartments. Cells were seeded at a density of 200,000 cells per well and maintained for 10 days to form a polarized barrier with a TransEpithelial Electrial Resistance (TEER) reading above 1000Ω. On the first day of the assay, initial TEER readings were taken and cytokines were added to the basolateral media (50 ng/mL TNFα, 25 ng/mL IFNγ and 10 ng/mL IL-1β) to reduce barrier integrity while compounds diluted in (dimethylsulfoxide) DMSO were added to the apical media in triplicate. After 48 hours, TEER readings were taken again and viability was measured by CellTiter 96® AQueous One Solution Cell Proliferation Assay (Promega). The percent change in TEER over the 48 hours was determined and normalized to the 0.1% DMSO control (Table 6).

[3] = tested on: Human Peripheral Blood Monocytes (PBMCs); assay: Cytokine release from human PBMCs; type: cell-based; conditions: 100 μM, LPS, 24 hours
Description: Human donor blood (8 mL) was collected in sodium citrate CPT tubes and centrifuged at 1,600×g for 20 minutes at room temperature. […] PBMCs samples were centrifuged at 400×g for 10 minutes at 10° C. […] PBMCs were filtered through a 70 micron mesh to remove any cellular debris. […] PBMCs in a 96-well plate were rested for 30 minutes in a 37° C., 5% CO2 incubator, then subsequently treated with 10 μl of indicated compound. After 2 hours 10 μL of LPS (O111:B4) 1 mg/mL was added to test wells. After 24 hours of incubation at 37° C., 5% CO2, 100 μL of cell supernatant was collected and transferred to a 96-well plate (non-tissue treated, flat bottom). The plate was centrifuged at 350×g for 5 minutes at room temperature, and then the clear supernatant transferred to a new 96-well plate (non-tissue treated, flat bottom). The remaining cells were tested for viability using CellTiter-Glo® Luminescent Cell Viability Assay (Promega). The supernatant was analyzed for TNFα, IL-6 and IL-1β (kit LXSAHM-03; R&D Systems), using Luminex Immunoassay Technology (MAGPIX System). Cytokine levels of LPS treated DMSO control samples were set to 100%, and compound treated samples were expressed relative to this (Table 13).

[4] = tested on: DIO-NASH mice; assay: DIO animal model of NAFLD/NASH (Example 15); type: in vivo; conditions: 0.03% in AMLN diet, vs DIO-NASH vehicle
Description: The effect of 8 weeks of treatment for the indicated compounds on metabolic liver disease in pre-biopsied, 43-week old male DIO-NASH mice was evaluated (12 animals per group). Male C57BL/6JRj mice were fed 40% fat (18% trans-fat), 40% carbohydrate (20% fructose), and 2% Cholesterol (AMLN) diet for 38 weeks. All mice entering the experiment were pre-biopsied stratified based on liver biopsy (only animals with fibrosis stage ≥1 and steatosis score ≥2 were included). Animals were randomized into groups based on Col1a1 immunostaining. Mice were treated for a total of 8 weeks of dosing (drugs in diet, ad lib). […] Elafibranor was supplied by the vendor. Body weight was measured daily for the entire study period. Food intake was monitored daily for first 14 days and then twice a week until study end. Day 28 collection of tail vein blood/serum and feces. Terminal plasma was collected for biomarker determination of liver transaminases (ALT, AST), triglyceride and cholesterol. Terminal liver was removed, weighed, and sampled for 1) FFPE (histology), 2) frozen (biochemistry and nucleic acid). Liver biopsy histology: pre- and post-treatment NAFLD Activity Score (HE) including Fibrosis Stage (PSR), 2) post-treatment steatosis (HE), 3) post-treatment lipid-droplet #+size (HE), 4) post-treatment Galectin-3 (IHC), 5) pre- and post-treatment Collagen 1a1 (IHC), 6) post-treatment α-SMA (IHC). […]

[5] = tested on: Primary human subcutaneous adipocytes; assay: Glucose uptake in human subcutaneous adipocytes, insulin sensitive model; type: cell-based
Description: Primary human subcutaneous adipocytes (Zen Bio, Research Triangle Park, N.C.) were differentiated for two weeks prior to treatment. Cells were treated with indicated compounds diluted in (dimethyl-sulfoxide) DMSO in serum free medium for 24 hours in triplicate. After 24 hours, media was exchanged for assay buffer and the compounds were added again but in the presence of approximately 1 nM insulin. Glucose uptake was initiated with the addition of a cocktail containing 2-deoxyglucose and ^3H-2-deoxyglucose and allowed to incubate for 2 hours. Cells were washed, lysed and glucose uptake was measured as counts per well. As an assay control, 100 nM of insulin was used during the 2 hours of glucose uptake. […] Statistical changes in glucose uptake were determined by way ANOVA and compared to DMSO.

[6] = tested on: Primary human subcutaneous adipocytes; assay: Glucose uptake in human subcutaneous adipocytes, insulin resistant model; type: cell-based
Description: As described above, primary human subcutaneous adipocytes were differentiated for two weeks prior to treatment. To induce an insulin resistant state, cells were treated in serum free Dulbecco's Modified Eagle Medium (high glucose) and […] for 24 hours. Cells were simultaneously treated with compounds diluted in DMSO for 24 hours. As described above, after 24 hours, media was exchanged for assay buffer and the compounds were added again but in the presence of approximately 1 nM insulin. Cells were washed and lysed after 2 hours and glucose uptake was measured. […] Statistical changes in glucose uptake were determined by way ANOVA and compared to DMSO.

[7] = tested on: Mouse 3T3-L1 cells; assay: Mouse adipocyte lipolysis assay; type: cell-based; conditions: 24 hours
Description: Once the cells became confluent, they were seeded into a tissue culture treated 96 well plate. […] After 14 days of differentiation, cells were treated with compounds of interest. After 24 hours post-treatment, the cell viability was assessed using CellTiter-Glo Luminescent Cell Viability Assay from Promega, and lipolysis was determined using Lipolysis Assay Kit from ZenBio.

[8] = tested on: Mouse myocyte; assay: Mouse myocyte lipolysis assay; type: cell-based
[9] = tested on: naïve CD4+ T cells; assay: Human regulatory T cell differentiation assay; type: cell-based; conditions: 6 days
Outline: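 Naïve CD4+ T cells from healthy-donor PBMCs cultured 6 days in OpTmizer medium with 5 ng/ml TGF-β, 100 U/ml IL-2 and CD3/CD28/CD2 activator, with or without compound. Tregs (live CD4+CD3+CD25+FOXP3+, lineage-negative) measured by flow cytometry and expressed as % of total CD4+ T cells.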

## CC(O)CCO (stereo not drawn) [butanediol, 1,3-butanediol]
[1]; Conc. 500.0 μM
  Average CYP1A1 mRNA levels: − (− = +2-fold Vehicle)
[2]; 100 μM + cytokines
  % Change in TEER from DMSO: − (≤125%: −)
[2]; 0.5 mM + cytokines
  % Change in TEER from DMSO: − (≤125%: −)
[3]
  IL6 % DMSO control: = ((=) 90%≥ <110% DMSO)
  ILβ % DMSO control: = ((=) 90%≥ <110% DMSO)
  TNFα % of DMSO control: = ((=) 90%≥ <110% DMSO)

## CSc1ccc(C(=O)/C=C/c2cc(C)c(OC(C)(C)C(=O)O)c(C)c2)cc1 [Elafibranor]
[4]
  liver fibrosis, Picro Sirius red (FIG. 49B): the fibrosis is finer
  liver morphology: lipid vacuole size (FIG. 48B): the vacuoles are smaller

## Cn1cc(C[C@H](N)C(=O)O)c2ccccc21 [1-methylindole-3-alanine]
[1]; Conc. 10.0 μM
  Average CYP1A1 mRNA levels: + (+ = >2-fold Vehicle)
[1]; Conc. 100.0 μM
  Average CYP1A1 mRNA levels: +++ (+++ = >10-fold Vehicle)

## O=C(O[C@@H]1Cc2c(O)cc(O)cc2O[C@@H]1c1cc(O)c(O)c(O)c1)c1cc(O)c(O)c(O)c1 [EGCG, epigallocatechin gallate]
[5]; 100 nM
  Insulin Sensitive % DMSO (glucose uptake): = (50%> ≤110%: =)
[5]; 10 μM
  Insulin Sensitive % DMSO (glucose uptake): = (50%> ≤110%: =)
[6]; 100 nM
  Insulin Resistant % DMSO (glucose uptake): + (110%> ≤140%: +)
[6]; 10 μM
  Insulin Resistant % DMSO (glucose uptake): = (50%> ≤110%: =)
[1]; Conc. 0.1 μM
  Average CYP1A1 mRNA levels: − (− = +2-fold Vehicle)
[1]; Conc. 1.0 μM
  Average CYP1A1 mRNA levels: − (− = +2-fold Vehicle)
[2]; 100 nM + cytokines
  % Change in TEER from DMSO: − (≤125%: −)
[2]; 1 μM + cytokines
  % Change in TEER from DMSO: − (≤125%: −)
[7]; 100 nM
  Lipolysis Free Fatty Acids % DMSO: ++ (50> ≤70%: ++)
  Lipolysis Glycerol % change: + (70%> ≤90%: +)
[7]; 1 μM
  Lipolysis Free Fatty Acids % DMSO: ++ (50> ≤70%: ++)
  Lipolysis Glycerol % change: + (70%> ≤90%: +)
[8]; 100 nM
  Free glycerol % DMSO: + (70%> <90%: +)
[8]; 1 μM
  Free glycerol % DMSO: + (70%> <90%: +)
[9]; 100 nM
  Cell viability % DMSO: = (90%≥ ≤110%: =)
  Treg induction % DMSO: = (90%≥ ≤110%: =)
[9]; 1 uM
  Cell viability % DMSO: = (90%≥ ≤110%: =)
  Treg induction % DMSO: = (90%≥ ≤110%: =)

## c1ccc2[nH]ccc2c1 [indole]
[1]; Conc. 1000.0 μM
  Average CYP1A1 mRNA levels: + (+ = >2-fold Vehicle)

## COC(=O)c1csc(C(=O)c2c[nH]c3ccccc23)n1 [ITE, 2-(1′H-indole-3′-carbonyl)-thiazole-4-carboxylic acid methyl ester]
[1]; Conc. 1.0 μM
  Average CYP1A1 mRNA levels: +++ (+++ = >10-fold Vehicle)
